Values joined by “and” are separate entries in the source; they are usually repeats but may differ in a detail not shown here. Equal values may be shown once.
Details: Liquid

C1CCCC1 [cyclopentane]
Details | viscosity
257.86 K, 100 kPa | 0.6878 mPa·s
257.87 K, 100 kPa | 0.6871 mPa·s
258.01 K, 100 kPa | 0.6851 mPa·s
262.93 K, 100 kPa | 0.6393 mPa·s and 0.6392 mPa·s
262.93 K, 3100 kPa | 0.6574 mPa·s
262.93 K, 5600 kPa | 0.6719 mPa·s
262.93 K, 7900 kPa | 0.6858 mPa·s
262.93 K, 10100 kPa | 0.6987 mPa·s
262.93 K, 25800 kPa | 0.795 mPa·s
262.93 K, 50800 kPa | 0.9583 mPa·s
262.93 K, 75700 kPa | 1.137 mPa·s
262.93 K, 100700 kPa | 1.333 mPa·s
262.93 K, 125800 kPa | 1.546 mPa·s
262.93 K, 150800 kPa | 1.782 mPa·s
262.93 K, 175800 kPa | 2.04 mPa·s
262.93 K, 200800 kPa | 2.322 mPa·s
262.93 K, 225900 kPa | 2.629 mPa·s
262.93 K, 250900 kPa | 2.967 mPa·s
262.93 K, 275800 kPa | 3.333 mPa·s
262.93 K, 300600 kPa | 3.725 mPa·s
262.99 K, 100 kPa | 0.6384 mPa·s and 0.6388 mPa·s
262.99 K, 3100 kPa | 0.6562 mPa·s
262.99 K, 5600 kPa | 0.6709 mPa·s
262.99 K, 8100 kPa | 0.6858 mPa·s
262.99 K, 10800 kPa | 0.7025 mPa·s
262.99 K, 25800 kPa | 0.7943 mPa·s
262.99 K, 50800 kPa | 0.9576 mPa·s
262.99 K, 75700 kPa | 1.136 mPa·s
262.99 K, 100500 kPa | 1.33 mPa·s
262.99 K, 125500 kPa | 1.543 mPa·s
262.99 K, 150500 kPa | 1.778 mPa·s
262.99 K, 175500 kPa | 2.032 mPa·s
262.99 K, 200200 kPa | 2.307 mPa·s
263.03 K, 100 kPa | 0.6386 mPa·s and 0.639 mPa·s
263.03 K, 10600 kPa | 0.7005 mPa·s
263.03 K, 20600 kPa | 0.7608 mPa·s
263.03 K, 30600 kPa | 0.8231 mPa·s
263.03 K, 40500 kPa | 0.8873 mPa·s
263.03 K, 50500 kPa | 0.9555 mPa·s
263.03 K, 60500 kPa | 1.024 mPa·s
263.03 K, 70500 kPa | 1.095 mPa·s
263.03 K, 80600 kPa | 1.171 mPa·s
263.03 K, 90400 kPa | 1.246 mPa·s
263.03 K, 100400 kPa | 1.327 mPa·s
263.03 K, 110500 kPa | 1.41 mPa·s
263.03 K, 120500 kPa | 1.496 mPa·s
263.03 K, 130500 kPa | 1.585 mPa·s
263.03 K, 140400 kPa | 1.677 mPa·s
263.03 K, 150400 kPa | 1.774 mPa·s
263.03 K, 160500 kPa | 1.874 mPa·s
263.03 K, 170500 kPa | 1.977 mPa·s
263.03 K, 180400 kPa | 2.083 mPa·s
263.03 K, 190300 kPa | 2.193 mPa·s
263.03 K, 200200 kPa | 2.27 mPa·s
268.01 K, 100 kPa | 0.6016 mPa·s and 0.5994 mPa·s
268.01 K, 3000 kPa | 0.6145 mPa·s
268.01 K, 5500 kPa | 0.6285 mPa·s
268.01 K, 8100 kPa | 0.6428 mPa·s
268.01 K, 10600 kPa | 0.6569 mPa·s
268.01 K, 25900 kPa | 0.745 mPa·s
268.01 K, 50900 kPa | 0.8969 mPa·s
268.01 K, 75900 kPa | 1.065 mPa·s
268.01 K, 100700 kPa | 1.243 mPa·s
268.01 K, 125700 kPa | 1.44 mPa·s
268.01 K, 150600 kPa | 1.657 mPa·s
268.01 K, 175700 kPa | 1.896 mPa·s
268.01 K, 200700 kPa | 2.151 mPa·s
268.01 K, 225600 kPa | 2.432 mPa·s
268.01 K, 250800 kPa | 2.742 mPa·s
268.01 K, 275300 kPa | 3.073 mPa·s
268.01 K, 301000 kPa | 3.447 mPa·s
268.01 K, 325300 kPa | 3.833 mPa·s
268.01 K, 351200 kPa | 4.283 mPa·s
268.01 K, 378000 kPa | 4.766 mPa·s
273.15 K, 100 kPa | 0.5601 mPa·s and 0.561 mPa·s
273.15 K, 3100 kPa | 0.5756 mPa·s
273.15 K, 5600 kPa | 0.5886 mPa·s
273.15 K, 8100 kPa | 0.6022 mPa·s
273.15 K, 10600 kPa | 0.6155 mPa·s
273.15 K, 25900 kPa | 0.6979 mPa·s
273.15 K, 50800 kPa | 0.8418 mPa·s
273.15 K, 75800 kPa | 0.9972 mPa·s
273.15 K, 100700 kPa | 1.166 mPa·s
273.15 K, 125500 kPa | 1.349 mPa·s
273.15 K, 150500 kPa | 1.55 mPa·s
273.15 K, 175500 kPa | 1.769 mPa·s
273.15 K, 200500 kPa | 2.006 mPa·s
273.15 K, 225300 kPa | 2.266 mPa·s
273.15 K, 250600 kPa | 2.552 mPa·s
273.15 K, 275800 kPa | 2.864 mPa·s
273.15 K, 300700 kPa | 3.198 mPa·s
